Experimental data: US20240360146A1, “BRUTON'S TYROSINE KINASE AND MUTANT DEGRADER, COMPOSITION AND APPLICATION THEREOF” (HANGZHOU HEALZEN THERAPEUTICS CO., LTD., priority 2021, published 2024)

molecular target: T1, BTK (Homo sapiens, UniProt Q06187); assay: BTK degradation activity test in Mino cells; assay type: cell-based; conditions: 16 h incubation, Western blot or Elisa
T1 construct: endogenous in cells; host or cells: Mino cells
Protocol: Mino cell line cells were seeded at 500,000 to 1,000,000 cells/well in a 6-well plate. The compounds were diluted to different concentrations and added to the plate, and after 16 h of incubation, cells were harvested. After lysing the cells, the total protein concentration in each well was determined using the BCA method. The amount of BTK was determined using Western blot or Elisa method. The amount of undegraded BTK protein at each drug concentration was compared with the amount of BTK protein in the blank control group to calculate the degradation rate. The degradation curve was drawn based on the degradation rate at each concentration, and the half degradation concentration (DC50) was calculated by fitting.

T1 sequence (Q06187 whole entry): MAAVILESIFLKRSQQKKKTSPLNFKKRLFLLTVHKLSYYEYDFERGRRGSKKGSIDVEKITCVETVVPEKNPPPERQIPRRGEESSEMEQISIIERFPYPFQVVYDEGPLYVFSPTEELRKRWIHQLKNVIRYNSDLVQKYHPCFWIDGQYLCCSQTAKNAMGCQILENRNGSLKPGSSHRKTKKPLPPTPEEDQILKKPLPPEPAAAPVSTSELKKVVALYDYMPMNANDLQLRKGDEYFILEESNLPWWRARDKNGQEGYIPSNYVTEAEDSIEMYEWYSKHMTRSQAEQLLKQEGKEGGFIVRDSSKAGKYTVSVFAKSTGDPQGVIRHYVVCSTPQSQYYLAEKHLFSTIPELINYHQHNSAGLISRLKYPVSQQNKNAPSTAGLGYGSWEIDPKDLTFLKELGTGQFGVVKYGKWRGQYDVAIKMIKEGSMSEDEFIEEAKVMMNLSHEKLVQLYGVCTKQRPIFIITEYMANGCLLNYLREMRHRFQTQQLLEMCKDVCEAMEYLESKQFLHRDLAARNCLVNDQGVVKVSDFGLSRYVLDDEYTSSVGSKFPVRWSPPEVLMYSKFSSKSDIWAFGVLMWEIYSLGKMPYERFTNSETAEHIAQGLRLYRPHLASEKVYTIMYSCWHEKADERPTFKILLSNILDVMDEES

DC50 [nM]	Compound
< 1	CN1CCN([C@@H]2CCCN(c3nnc(C(N)=O)c(Nc4ccc(N5CCN(CC6CCN(c7ccc8c9c(cccc79)C(=O)N8C7CCC(=O)NC7=O)CC6)CC5)c(F)c4)n3)C2)C1=O (stereo partly drawn) [Compound 247, 5-((4-(4-((1-(1-(2,6-dioxopiperidin-3-yl)-2-oxo-1,2-dihydrobenzo[cd]indol-6-yl)piperidin-4-yl)methyl)piperazin-1-yl)-3-fluorophenyl)amino)-3-((R)-3-(3-methyl-2-oxoimidazolidin-1-yl)piperidin-1-yl)-1,2,4-triazin-6-carboxamide]
< 1	CN1CCN([C@@H]2CCCN(c3nnc(C(N)=O)c(Nc4ccc(N5CCN(CC#Cc6ccc(NC7CCC(=O)NC7=O)c(F)c6)CC5)c(F)c4)n3)C2)C1=O (stereo partly drawn) [Compound 228, 5-((4-(4-(3-(4-((2,6-dioxopiperidin-3-yl)amino)-3-fluorophenyl)propan-2-yn-1-yl)piperazin-1-yl)-3-fluorophenyl)amino)-3-((R)-3-(3-methyl-2-oxoimidazolidin-1-yl)piperidin-1-yl)-1,2,4-triazin-6-carboxamide]
< 1	NC(=O)c1ncc(N2CCCC(N3CCN(C4COC4)C3=O)C2)nc1Nc1ccc(N2CCC3(CC2)CCN(c2ccc4c(c2)C(=O)N(C2CCC(=O)NC2=O)C4=O)CC3)cc1 (stereo not shown) [Compound 017, 3-((4-(9-(2-(2,6-dioxopiperidin-3-yl)-1,3-dioxoisoindol-5-yl)-3,9-diazaspirocyclo[5.5]undec-3-yl)phenyl)amino)-5-(3-(3-(oxetan-3-yl)-2-oxoimidazolin-1-yl)piperidin-1-yl)pyrazin-2-carboxamide]
< 1	CN1CCN([C@@H]2CCCN(c3nnc(C(N)=O)c(Nc4ccc(N5CCN(CC6CCN(c7ccc(NC8CCC(=O)NC8=O)cc7F)CC6)CC5)c(F)c4)n3)C2)C1=O (stereo partly shown) [Compound 251]
< 1	NC(=O)c1ncc(N2CCCC(N3CCN(C4COC4)C3=O)C2)nc1Nc1ccc2c(c1)CCN(CC1CCN(c3ccc4c(c3)C(=O)N(C3CCC(=O)NC3=O)C4=O)CC1)C2 (stereo not shown) [Compound 031, 3-((2-((1-(2-(2,6-dioxopiperidin-3-yl)-1,3-dioxoisoindol-5-yl)piperidin-4-yl)methyl)-1,2,3,4-tetrahydroisoquinolin-6-yl)amino)-5-(3-(3-(oxetan-3-yl)-2-oxoimidazolin-1-yl)piperidin-1-yl)pyrazin-2-carboxamide]
< 1	CC1(c2ccc(Nc3nc(N4CCCC(N5CCN(C6CCCC6)C5=O)C4)cnc3C(N)=O)cc2)CCN(C2CN(c3ccc(NC4CCC(=O)NC4=O)cn3)C2)CC1 (stereo not shown) [Compound 021]
< 1	CN1CCN(C2CCCN(c3nnc(C(N)=O)c(Nc4ccc(C5CCN(CC6CCN(c7ccc8c(c7)n(C)c(=O)n8C7CCC(=O)NC7=O)CC6)CC5)cc4)n3)C2)C1=O (stereo not shown) [Compound 088, 5-((4-(1-((1-(1-(2,6-dioxopiperidin-3-yl)-3-methyl-2-oxo-2,3-dihydro-1H-benzo[d]imidazol-5-yl)piperidin-4-yl)methyl)piperidin-4-yl)phenyl)amino)-3-(3-(3-methyl-2-oxoimidazolin-1-yl)piperidin-1-yl)-1,2,4-triazin-6-carboxamide]
< 1	CN1C(=O)N(C2CCCN(c3nnc(C(N)=O)c(Nc4ccc(C5CCN(CC6CCN(c7ccc8c(c7)C(=O)N(C7CCC(=O)NC7=O)C8=O)CC6)CC5)cc4)n3)C2)CC12CC2 (stereo not shown) [Compound 068, 5-((4-(1-((1-(2-(2,6-dioxopiperidin-3-yl)-1,3-dioxoisoindol-5-yl)piperidin-4-yl)methyl)piperidin-4-yl)phenyl)amino)-3-(3-(4-methyl-5-oxo-4,6-diazaspirocyclo[2.4]heptan-6-yl)piperidin-1-yl)-1,2,4-triazin-6-carboxamide]
< 1	CC1(c2ccc(Nc3nc(N4CCCC(N5CCN(C6CCOCC6)C5=O)C4)cnc3C(N)=O)cc2)CCN(C2CN(c3ccc4c(c3)C(=O)N(C3CCC(=O)NC3=O)C4=O)C2)CC1 (stereo not shown) [Compound 004, 3-((4-(1-(1-(2-(2,6-dioxopiperidin-3-yl)-1,3-dioxoisoindol-5-yl)azetidine-3-yl)-4-methylpiperidin-4-yl)phenyl)amino)-5-(3-(2-oxo-3-(tetrahydro-2H-pyran-4-yl)imidazolin-1-yl)piperidin-1-yl)pyrazin-2-carboxamide]
> 1	NC(=O)c1nnc(N2CCCC(N3CCN(C4CCC4)C3=O)C2)nc1Nc1ccc(C2CCN(CC3CCN(c4ccc5c(c4)C(=O)N(C4CCC(=O)NC4=O)C5=O)CC3)CC2)cc1 (stereo not shown) [Compound 059, 3-(3-(3-cyclobutyl-2-oxoimidazolin-1-yl)piperidin-1-yl)-5-((4-(1-((1-(2-(2,6-dioxopiperidin-3-yl)-1,3-dioxoisoindol-5-yl)piperidin-4-yl)methyl)piperidin-4-yl)phenyl)amino)-1,2,4-triazin-6-carboxamide]
< 1	CN1CCN(C2CCCN(c3nnc(C(N)=O)c(Nc4ccc(N5CCN(CC6CCN(c7ccc8c(c7)C(=O)N(C7CCC(=O)NC7=O)C8=O)CC6)CC5)cc4)n3)C2)C1=O (stereo not shown) [Compound 082, 5-((4-(4-((1-(2-(2,6-dioxopiperidin-3-yl)-1,3-dioxoisoindol-5-yl)piperidin-4-yl)methyl)piperazin-1-yl)phenyl)amino)-3-(3-(3-methyl-2-oxoimidazolin-1-yl)piperidin-1-yl)-1,2,4-triazin-6-carboxamide]
< 1	CN1CCN([C@@H]2CCCN(c3nnc(C(N)=O)c(Nc4ccc(N5CCN(CC#Cc6ccc7c8c(cccc68)C(=O)N7C6CCC(=O)NC6=O)CC5)c(F)c4)n3)C2)C1=O (stereo partly drawn) [Compound 248, 5-((4-(4-(3-(1-(2,6-dioxopiperidin-3-yl)-2-oxo-1,2-dihydrobenzo[cd]indol-6-yl)propan-2-yn-1-yl)piperazin-1-yl)-3-fluorophenyl)amino)-3-((R)-3-(3-methyl-2-oxoimidazolidin-1-yl)piperidin-1-yl)-1,2,4-triazin-6-carboxamide]
> 1	NC(=O)c1ncc(N2CCCC(N3CCN(C4CCCC4)C3=O)C2)nc1Nc1ccc(C2CCN(CC3CCN(c4ccc5c(c4)C(=O)N(C4CCC(=O)NC4=O)C5=O)C3)CC2F)cc1 (stereo not shown) [Compound 043, 5-(3-(3-cyclopentyl-2-oxoimidazolin-1-yl)piperidin-1-yl)-3-((4-(1-((1-(2-(2,6-dioxopiperidin-3-yl)-1,3-dioxoisoindolin-5-yl)pyrrolidin-3-yl)methyl)-3-fluoropiperidin-4-yl)phenyl)amino)pyrazin-2-carboxamide]
< 1	CN1CCN([C@@H]2CCCN(c3nnc(C(N)=O)c(Nc4ccc(N5CCN(CC6CCN(c7ccc8c(C9CCC(=O)NC9=O)nn(C)c8n7)C6)CC5)c(F)c4)n3)C2)C1=O (stereo partly drawn) [Compound 214, 5-((4-(4-((1-(3-(2,6-dioxopiperidin-3-yl)-1-methyl-H-pyrazolo[3,4-b]pyridin-6-yl)pyrrolidin-3-yl)methyl)piperazin-1-yl)-3-fluorophenyl)amino)-3-((R)-3-(3-methyl-2-oxoimidazolidin-1-yl)piperidin-1-yl)-1,2,4-triazin-6-carboxamide]
< 1	CN1CCN(C2CC3CC2N(c2nnc(C(N)=O)c(Nc4ccc(C5CCN(C6CCN(c7ccc8c(c7)C(=O)N(C7CCC(=O)NC7=O)C8=O)CC6)CC5)cc4)n2)C3)C1=O (stereo not shown) [Compound 109, 5-((4-(1′-(2-(2,6-dioxopiperidin-3-yl)-1,3-dioxoisoindol-5-yl)-[1,4′-bipiperidin]-4-yl)phenyl)amino)-3-(6-(3-methyl-2-oxoimidazolin-1-yl)-2-azabicyclo[2.2.1]heptan-2-yl)-1,2,4-triazin-6-carboxamide]
< 1	CN1CCN([C@@H]2CCCN(c3nnc(C(N)=O)c(Nc4ccc(N5CCN(CC6CCN(c7ccc(N8CCC(=O)NC8=O)c(C(N)=O)c7)CC6)CC5)c(F)c4)n3)C2)C1=O [Compound 233, (R)-5-((4-(4-((1-(3-carbamoyl-4-(2,4-dioxotetrahydropyrimidin-1(2H)-yl)phenyl)piperidin-4-yl)methyl)piperazin-1-yl)-3-fluorophenyl)amino)-3-(3-(3-methyl-2-oxoimidazolidin-1-yl)piperidin-1-yl)-1,2,4-triazin-6-carboxamide]
< 1	NC(=O)c1ncc(N2CCCC(N3CC4CCCCN4C3=O)C2)nc1Nc1ccc(C2CCN(CC3CCN(c4ccc5c(c4)C(=O)N(C4CCC(=O)NC4=O)C5=O)C3)CC2)cc1 (stereo not shown) [Compound 045, 3-((4-(1-((1-(2-(2,6-dioxopiperidin-3-yl)-1,3-dioxoisoindolin-5-yl)pyrrolidin-3-yl)methyl)piperidin-4-yl)phenyl)amino)-5-(3-(3-oxohexahydroimidazo[1,5-a]pyridin-2(3H)-yl)piperidin-1-yl)pyrazin-2-carboxamide]
< 1	CN1CCN([C@@H]2CCCN(c3nnc(C(N)=O)c(Nc4ccc(N5CCN(C[C@H]6CCN(c7ccc8c(c7)C(=O)N(C7CCC(=O)NC7=O)C8=O)C6)CC5)c(Cl)c4)n3)C2)C1=O (stereo partly drawn) [Compound 160, 5-((3-chloro-4-(4-(((3R)-1-(2-(2,6-dioxopiperidin-3-yl)-1,3-dioxoisoindolin-5-yl)pyrrolidin-3-yl)methyl)piperazin-1-yl)phenyl)amino)-3-((R)-3-(3-methyl-2-oxoimidazolidin-1-yl)piperidin-1-yl)-1,2,4-triazin-6-carboxamide]
< 1	CN1CCN(C2CC3CC2N(c2cnc(C(N)=O)c(Nc4ccc(C5CCN(C6CN(c7ccc8c(c7)C(=O)N(C7CCC(=O)NC7=O)C8=O)C6)CC5)cc4)n2)C3)C1=O (stereo not shown) [Compound 046, 3-((4-(1-(1-(2-(2,6-dioxopiperidin-3-yl)-1,3-dioxoisoindolin-5-yl)azetidin-3-yl)piperidin-4-yl)phenyl)amino)-5-(-6-(3-methyl-2-oxoimidazolin-1-yl)-2-azabicyclo[2.2.1]heptan-2-yl)pyrazin-2-carboxamide]
